Patent publication US8889688B2, “Piperazines as antimalarial agents” (Actelion Pharmaceuticals Ltd., priority 2011, dated 2014)
Where two headings read alike, the source gives them in different places.

Test system: erythrocytic stages of P. falciparum NF54
Test: Plasmodium falciparum in vitro assay, [3H] hypoxanthine incorporation
Assay type: cell-based
Settings: P. falciparum NF54 in human red blood cells, 48 h + 24 h incubation
Description: In Vitro Antimalarial Activity: Plasmodium falciparum In Vitro Assay In vitro activity against erythrocytic stages of P. falciparum in human red blood cells is determined using a [^3H] hypoxanthine incorporation assay. […] Thereafter, the parasite cultures incubated in screening medium containing washed human red blood cells at 2.5% hematocrit (0.3% parasitemia) are added to the serially diluted compounds and incubated in a humidifying atmosphere at 37° C., 4% CO2, 3% O2, and 93% N2. After 48 h, [^3H] hypoxanthine (0.5 μCi) is added to each well of a plate. The plates are incubated for a further 24 h under the same conditions then harvested with a Betaplate cell harvester (Wallac) and washed with distilled water. The dried filters are inserted into a plastic foil with 10 mL of scintillation fluid, and counted in a Betaplate liquid scintillation counter. IC50 values are calculated from sigmoidal inhibition curves using Microsoft Excel.

[1] = Plasmodium falciparum, Erythrocyte, 72 h, screening medium with Albumax (5 g/L), read-out: IC50 on NF54 (with Albumax)
[2] = Plasmodium falciparum, Erythrocyte, 72 h, screening medium with human serum (50% final concentration), read-out: IC50 on NF54 (with 50% Serum)

| Compound | IC50 [1] [µM] | IC50 [2] [µM] | IC50 (screening medium with Albumax (5 g/L), read-out: IC50 on NF54 (with Albumax)) [µM] | IC50 (screening medium with human serum (50% final concentration), read-out: IC50 on NF54 (with 50% Serum)) [µM] |
| --- | --- | --- | --- | --- |
| CCOc1ccc(C=CC(=O)N(Cc2ccc(N3CCN(C(C)=O)CC3)cc2)[C@@H](Cc2ccccc2)C(=O)N2CCN(Cc3ccc(N(C)C)cc3)CC2)cn1 [Example 14, (S)-N-[4-(4-Acetyl-piperazin-1-yl)-benzyl]-N-{1-benzyl-2-[4-(4-dimethylamino-benzyl)-piperazin-1-yl]-2-oxo-ethyl}-3-(6-ethoxy-pyridin-3-yl)-acrylamide] | 0.0037 | 0.02 |  |  |
| CC(=O)N1CCN(c2ccc(CN(C(=O)C=Cc3ccc(S(C)(=O)=O)cc3)[C@@H](Cc3ccccc3)C(=O)N3CCN(Cc4ccc(C#N)cc4)CC3)cc2)CC1 [Example 26, (S)-N-[4-(4-Acetyl-piperazin-1-yl)-benzyl]-N-{1-benzyl-2-[4-(4-cyano-benzyl)-piperazin-1-yl]-2-oxo-ethyl}-3-(4-methanesulfonyl-phenyl)-acrylamide] | 0.018 | 0.033 |  |  |
| CC(=O)N1CCN(c2ccc(CN(C(=O)C=Cc3ccc(C(F)(F)F)nc3)[C@@H](Cc3ccccc3)C(=O)N3CCN(Cc4ccc(N(C)CCO)cc4)CC3)cc2)CC1 [Example 51, (S)-N-[4-(4-Acetyl-piperazin-1-yl)-benzyl]-N-[1-benzyl-2-(4-{4-[(2-hydroxy-ethyl)-methyl-amino]-benzyl}-piperazin-1-yl)-2-oxo-ethyl]-3-(6-trifluoromethyl-pyridin-3-yl)-acrylamide] | 0.0107 | 0.0298 |  |  |
| CC(=O)N1CCN(c2ccc(CN(C(=O)C=Cc3ccc(C(F)(F)F)cc3)[C@@H](Cc3ccccc3)C(=O)N3CCN(Cc4ccc([N+](=O)[O-])cc4)CC3)cc2)CC1 [Example 64, (S)-N-[4-(4-Acetyl-piperazin-1-yl)-benzyl]-N-{1-benzyl-2-[4-(4-nitro-benzyl)-piperazin-1-yl]-2-oxo-ethyl}-3-(4-trifluoromethyl-phenyl)-acrylamide] | 0.0035 | 0.043 |  |  |
| CC(=O)Nc1ccc(C=CC(=O)N(Cc2ccc(N3CCN(C(C)=O)CC3)cc2)[C@@H](Cc2ccccc2)C(=O)N2CCN(Cc3ccc(N(C)C)cc3)CC2)cc1 [Example 17, (S)-3-(4-Acetylamino-phenyl)-N-[4-(4-acetyl-perazin-1-yl)-benzyl]-N-{1-benzyl-2-[4-(4-dimethylamino-benzyl)-piperazin-1-yl]-2-oxo-ethyl}-acrylamide] |  |  | 0.0043 | 0.039 |
| CC(=O)N1CCN(c2ccc(CN(C(=O)C=Cc3ccc(C(F)(F)F)nc3)[C@@H](Cc3ccccc3)C(=O)N3CCN(Cc4ccc(N(C)C)cc4)CC3)cc2)CC1 [Example 12, (S)-N-[4-(4-Acetyl-piperazin-1-yl)-benzyl]-N-{1-benzyl-2-[4-(4-dimethylamino-benzyl)-piperazin-1-yl]-2-oxo-ethyl}-3-(6-trifluoromethyl-pyridin-3-yl)-acrylamide] | 0.017 | 0.074 |  |  |
| CC(=O)N1CCN(c2ccc(CN(C(=O)C=Cc3ccc(C(F)(F)F)cc3)[C@@H](Cc3ccccc3)C(=O)N3CCN(Cc4ccc(OC(C)C)cc4)CC3)cc2)CC1 [Example 65, (S)-N-[4-(4-Acetyl-piperazin-1-yl)-benzyl]-N-{1-benzyl-2-[4-(4-isopropoxy-benzyl)-piperazin-1-yl]-2-oxo-ethyl}-3-(4-trifluoromethyl-phenyl)-acrylamide] | 0.0028 | 0.014 |  |  |
| CC(=O)Nc1ccc(C=CC(=O)N(Cc2ccc(N3CCN(C(C)=O)CC3)cc2)[C@@H](Cc2ccccc2)C(=O)N2CCN(Cc3ccc(Cl)cc3)CC2)cc1 [Example 37, (S)-3-(4-Acetylamino-phenyl)-N-[4-(4-acetyl-piperazin-1-yl)-benzyl]-N-{1-benzyl-2-[4-(4-chloro-benzyl)-piperazin-1-yl]-2-oxo-ethyl}-acrylamide] | 0.0032 | 0.028 |  |  |

The next lines start with results.

| IC50 [1] [µM] | IC50 [2] [µM] | Compound | IC50 (screening medium with Albumax (5 g/L), read-out: IC50 on NF54 (with Albumax)) [µM] | IC50 (screening medium with human serum (50% final concentration), read-out: IC50 on NF54 (with 50% Serum)) [µM] |
| --- | --- | --- | --- | --- |
| < 0.0031 | 0.017 | COc1ccc(C=CC(=O)N(Cc2ccc(N3CCN(C(C)=O)CC3)cc2)[C@@H](Cc2ccccc2)C(=O)N2CCN(Cc3ccc(N(C)C)cc3)CC2)cc1 [Example 69, (S)-N-[4-(4-Acetyl-piperazin-1-yl)benzyl]-N-{1-(4-(4-(dimethylamino)benzyl)piperazin-1-yl)-1-oxo-3-phenylpropan-2-yl}-3-(4-methoxyphenyl)acrylamide] |  |  |
| 0.012 | 0.046 | COc1ccc(C=CC(=O)N(Cc2ccc(N3CCN(C(C)=O)CC3)cc2)[C@@H](Cc2ccccc2)C(=O)N2CCN(Cc3ccc(N(C)C)cc3)CC2)cn1 [Example 13, (S)-N-[4-(4-Acetyl-piperazin-1-yl)-benzyl]-N-{1-benzyl-2-[4-(4-dimethylamino-benzyl)-piperazin-1-yl]-2-oxo-ethyl}-3-(6-methoxy-pyridin-3-yl)-acrylamide] |  |  |
| 0.0007 | 0.008 | CCCc1ccc(C=CC(=O)N(Cc2ccc(N3CCN(C(C)=O)CC3)cc2)[C@@H](Cc2ccccc2)C(=O)N2CCN(Cc3ccc(N(C)C)cc3)CC2)cc1 [Example 68, (S)-N-[4-(4-Acetyl-piperazin-1-yl)benzyl]-N-{1-(4-(4-(dimethylamino)benzyl)piperazin-1-yl)-1-oxo-3-phenylpropan-2-yl}-3-(4-propylphenyl)acrylamide] |  |  |
| 0.0033 | 0.026 | CC(=O)N1CCN(c2ccc(CN(C(=O)C=Cc3ccc(Cl)cc3)[C@@H](Cc3ccccc3)C(=O)N3CCN(Cc4ccc(N(C)C)cc4)CC3)cc2)CC1 [Example 73, (S)-N-[4-(4-Acetyl-piperazin-1-yl)benzyl]-3-(4-chlorophenyl)-N-{1-(4-(4-(dimethylamino)benzyl)piperazin-1-yl)-1-oxo-3-phenylpropan-2-yl}acrylamide] |  |  |
| 0.018 | 0.062 | CC(=O)N1CCN(c2ccc(CN(C(=O)C=Cc3ccc(C#N)cc3)[C@@H](Cc3ccccc3)C(=O)N3CCN(Cc4ccc(N(C)C)cc4)CC3)cc2)CC1 [Example 71, (S)-N-[4-(4-Acetyl-piperazin-1-yl)benzyl]-3-(4-cyanophenyl)-N-{1-(4-(4-(dimethylamino)benzyl)piperazin-1-yl)-1-oxo-3-phenylpropan-2-yl}acrylamide] |  |  |
| 0.004 | 0.021 | CC(=O)N1CCN(c2ccc(CN(C(=O)C=Cc3ccc(C(F)(F)F)cc3)[C@@H](Cc3ccccc3)C(=O)N3CCN(Cc4ccc(N(C)C)cc4)CC3)cc2)CC1 [Example 11, (S)-N-[4-(4-Acetyl-piperazin-1-yl)-benzyl]-N-{1-benzyl-2-[4-(4-dimethylamino-benzyl)-piperazin-1-yl]-2-oxo-ethyl}-3-(4-trifluoromethyl-phenyl)-acrylamide] |  |  |
| 0.0032 | 0.0178 | COc1ccc(CN2CCN(C(=O)[C@H](Cc3ccccc3)N(Cc3ccc(N4CCN(C(C)=O)CC4)cc3)C(=O)C=Cc3ccc(C(F)(F)F)cc3)CC2)cc1 [Example 63, (S)-N-[4-(4-Acetyl-piperazin-1-yl)-benzyl]-N-{1-benzyl-2-[4-(4-methoxy-benzyl)-piperazin-1-yl]-2-oxo-ethyl}-3-(4-trifluoromethyl-phenyl)-acrylamide] |  |  |
| < 0.0031 | 0.0175 | CC(=O)N1CCN(c2ccc(CN(C(=O)C=Cc3ccc(C)cc3)[C@@H](Cc3ccccc3)C(=O)N3CCN(Cc4ccc(N(C)C)cc4)CC3)cc2)CC1 [Example 67, (S)-N-[4-(4-Acetyl-piperazin-1-yl)benzyl]-N-{1-[4-(4-(dimethylamino)benzyl)piperazin-1-yl]-1-oxo-3-phenylpropan-2-yl}-3-(p-tolyl)acrylamide] |  |  |
| 0.0246 | 0.113 | CC(=O)N1CCN(c2ccc(CN(C(=O)C=Cc3ccccc3)[C@@H](Cc3ccccc3)C(=O)N3CCN(Cc4ccc(N(C)C)cc4)CC3)cc2)CC1 [Example 66, (S)-N-[4-(4-Acetyl-piperazin-1-yl)benzyl]-N-{1-(4-(4-(dimethylamino)benzyl)piperazin-1-yl)-1-oxo-3-phenylpropan-2-yl}cinnamamide] |  |  |
| < 0.0031 | 0.016 | CC(=O)c1ccc(C=CC(=O)N(Cc2ccc(N3CCN(C(C)=O)CC3)cc2)[C@@H](Cc2ccccc2)C(=O)N2CCN(Cc3ccc(N(C)C)cc3)CC2)cc1 [Example 70, (S)-3-(4-Acetyl-phenyl)-N-[4-(4-acetyl-piperazin-1-yl)benzyl]-N-{1-(4-(4-(dimethylamino)benzyl)piperazin-1-yl)-1-oxo-3-phenylpropan-2-yl}acrylamide] |  |  |
| 0.01 | 0.091 | CC(=O)N1CCN(c2ccc(CN(C(=O)C=Cc3ccc(F)cc3)[C@@H](Cc3ccccc3)C(=O)N3CCN(Cc4ccc(N(C)C)cc4)CC3)cc2)CC1 [Example 72, (S)-N-[4-(4-Acetyl-piperazin-1-yl)benzyl]-N-{1-(4-(4-(dimethylamino)benzyl)piperazin-1-yl)-1-oxo-3-phenylpropan-2-yl}-3-(4-fluorophenyl)acrylamide] |  |  |
